# Measurements published in publication PMC1874649 (Nucleic Acids Research, 2007).
# System: cyclin B1
# Assay type: cell-based
# Details: complexed with Pep-3, 2 µM, HeLa cells
substance,measurement,value
"control HypNA-pPNA sequence harbouring two mutations: sequence derived from Cyc-B1a harbouring two mismatches, TGC CAT CAG GCT TAG AGG (antisense TGCCATCAGGCTTAGAGG; HypNA-pPNA backbone (hydroxyproline/phosphono PNA), pattern not given here)",effect on cyclin B1 protein levels (control),no effect
